ChEMBL document CHEMBL1134816, “Synthesis of 7,8-disubstituted benzolactam-V8 and its binding to protein kinase C” (Bioorg Med Chem Lett, 2001)

Assays:
[1] = biological target: Protein kinase C alpha type (Homo sapiens, UniProt P17252); assay: Displacement phorbol 12,13-dibutyrate(PDBU) binding from recombinant Protein kinase C alpha
[2] = biological target: T1, Protein kinase C epsilon type (Homo sapiens, UniProt Q02156); assay: Binding affinity for protein kinase C epsilon
T1 sequence (Q02156 whole entry): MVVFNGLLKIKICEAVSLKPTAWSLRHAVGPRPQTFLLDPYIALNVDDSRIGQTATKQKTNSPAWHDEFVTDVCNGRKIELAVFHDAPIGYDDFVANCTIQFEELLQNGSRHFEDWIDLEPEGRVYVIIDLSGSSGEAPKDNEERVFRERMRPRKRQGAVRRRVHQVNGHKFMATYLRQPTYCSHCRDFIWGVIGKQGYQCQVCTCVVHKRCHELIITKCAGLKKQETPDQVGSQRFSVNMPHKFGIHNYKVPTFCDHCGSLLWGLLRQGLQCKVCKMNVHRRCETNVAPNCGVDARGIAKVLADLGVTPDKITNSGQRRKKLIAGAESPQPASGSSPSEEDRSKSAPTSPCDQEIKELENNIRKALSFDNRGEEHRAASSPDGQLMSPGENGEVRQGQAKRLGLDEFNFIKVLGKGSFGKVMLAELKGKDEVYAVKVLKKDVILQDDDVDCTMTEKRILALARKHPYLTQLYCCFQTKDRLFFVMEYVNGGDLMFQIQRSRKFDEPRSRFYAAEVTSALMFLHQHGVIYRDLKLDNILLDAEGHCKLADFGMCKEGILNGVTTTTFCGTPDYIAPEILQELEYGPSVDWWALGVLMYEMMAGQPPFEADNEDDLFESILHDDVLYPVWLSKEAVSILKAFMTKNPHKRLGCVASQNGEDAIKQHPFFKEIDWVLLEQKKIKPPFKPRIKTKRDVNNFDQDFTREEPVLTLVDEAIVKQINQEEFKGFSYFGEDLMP

[3] = biological target: Protein kinase C delta type (Homo sapiens, UniProt Q05655); assay: Binding affinity for protein kinase C delta
Protein kinase C delta type, sequence (Q05655 whole entry): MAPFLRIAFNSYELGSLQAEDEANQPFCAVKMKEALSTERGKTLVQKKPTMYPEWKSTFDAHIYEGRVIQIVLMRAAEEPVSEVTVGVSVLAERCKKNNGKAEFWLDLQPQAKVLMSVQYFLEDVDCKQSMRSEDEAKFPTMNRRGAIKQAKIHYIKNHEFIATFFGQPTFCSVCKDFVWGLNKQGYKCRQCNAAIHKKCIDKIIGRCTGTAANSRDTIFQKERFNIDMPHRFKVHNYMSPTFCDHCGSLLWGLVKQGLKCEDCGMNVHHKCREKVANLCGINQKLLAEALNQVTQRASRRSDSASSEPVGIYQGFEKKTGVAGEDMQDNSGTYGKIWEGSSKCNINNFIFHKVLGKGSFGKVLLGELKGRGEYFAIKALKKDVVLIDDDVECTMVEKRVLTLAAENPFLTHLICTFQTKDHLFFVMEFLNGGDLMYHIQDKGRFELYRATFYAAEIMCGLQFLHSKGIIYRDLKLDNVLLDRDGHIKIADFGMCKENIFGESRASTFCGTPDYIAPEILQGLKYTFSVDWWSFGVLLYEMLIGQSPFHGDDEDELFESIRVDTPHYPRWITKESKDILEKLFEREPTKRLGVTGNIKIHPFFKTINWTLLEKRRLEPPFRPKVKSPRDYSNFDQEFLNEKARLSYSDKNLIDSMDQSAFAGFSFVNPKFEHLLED

Row | Ki [1] | Ki [2] | Ki [3] | Structure (SMILES)
1 | 7160 nM |  |  | COc1cccc2c1C[C@@H](CO)NC(=O)[C@H](C(C)C)N2C
2 | 45.6 nM | 121 nM | 91.1 nM | CCCCCCCCC#Cc1ccc2c(c1OC)C[C@@H](CO)NC(=O)[C@H](C(C)C)N2C
